Data reported in patent publication US8835428B2, “Diacylglycerol acyltransferase inhibitors” (Piramal Enterprises Limited, priority 2008, dated 2014).

Target: T1, hDGAT1 (Homo sapiens, UniProt O75907)
T1 construct: host or cells: Sf9 insect cells (baculovirus); microsomal preparation
T1 sequence (O75907 1-488): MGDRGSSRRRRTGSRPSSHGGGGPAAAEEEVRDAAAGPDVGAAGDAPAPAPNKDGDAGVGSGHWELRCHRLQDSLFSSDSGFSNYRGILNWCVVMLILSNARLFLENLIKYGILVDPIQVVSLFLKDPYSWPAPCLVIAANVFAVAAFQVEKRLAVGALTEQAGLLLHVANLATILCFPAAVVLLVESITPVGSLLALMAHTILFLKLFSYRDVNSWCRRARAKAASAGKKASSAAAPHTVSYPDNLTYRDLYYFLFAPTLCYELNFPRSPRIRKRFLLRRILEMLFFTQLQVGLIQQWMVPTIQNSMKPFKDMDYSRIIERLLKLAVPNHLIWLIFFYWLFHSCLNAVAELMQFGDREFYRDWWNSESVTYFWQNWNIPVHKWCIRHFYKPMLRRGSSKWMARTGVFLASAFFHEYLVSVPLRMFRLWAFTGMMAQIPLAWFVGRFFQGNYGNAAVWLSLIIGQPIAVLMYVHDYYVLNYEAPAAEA
Test: In-vitro DGAT1 assay (hDGAT1 microsomes from Sf9 cells, 14C oleoyl CoA, triglyceride formation)
Assay type: biochemical
Experimental: In-vitro Protocol for DGAT1 Assay
Sf9 Culture and Treatment
Sf9 cells were grown in T25 flasks containing Graces's Insect media with 10% FBS with antibiotic (100 units/mL penicillin, 100 μg/mL streptomycin sulphate, 0.25 μg/mL Amptotericin B as Fungizone) grown in a 27° C. incubator:
hDGAT1ORF expression clone (RZPDo839C09146 in pDEST vector) was obtained from RZPD, Germany. hDGAT1 bacmid DNA was obtained by transformation of the hDGAT expression clone into DH10Bac E. coli competent cells. Approximately 1 μg of hDGAT1 bacmid DNA was infected into Sf9 cells with Cellfectin (Invitrogen) reagent. Following infection, Sf9 cells were incubated at 27° C. for 30 minutes. Five hours after infection, the media was replaced with growth media containing antibiotic (100 units/mL penicillin, 100 μg/mL streptomycin sulphate, 0.25 μg/mL Amptotericin B as Fungizone) and incubated at 27° C. for 72 hours. The supernatant containing the virus was centrifuged at 1500×g for 5 minutes, passed through 0.22 μm filter, and subsequently stored at 4° C. The virus was further amplified three more times by re-infection of Sf9 cells and the viral titer was determined by plaque assay.
Preparation of DGAT1 Microsomes from Sf9 Cells
Sf9 cells were seeded in spinner flasks on day 0 at a cell density of 1×10^6 and infected on day 1 with hDGAT1 baculovirus at a multiplicity of infection (MOI) of 5 and a cell density of 2×10^6. On day 3 (or 66-72 hours), cells were harvested and centrifuged at 2500×g for 10 minutes. Pellet was resuspended in lysis buffer (100 mM sucrose, 50 mM KCl, 40 mM KH2PO4, 30 mM EDTA, pH 7.2) and passed through 21-gauge needle approximately 10 times. The mixture was centrifuged at 12,000 rpm in a Sigma 12158-H rotor at 4° C. for 30 minutes. The supernatant was subjected to centrifugation at 35,000 rpm in a Beckman Ti-45 rotor at 4° C. for 1 hour. The resultant pellet containing the microsomes were resuspended overnight in 1 mL of lysis buffer and total protein concentration was estimated using Bradford Reagent. Microsomes were aliquoted and stored at −20° C.
Measurement of DGAT1 Activity
Frozen aliquots of hDGAT1 containing microsomes were thawed (5-10 mg/mL total protein) on ice and diluted to a working stock of 1 mg/mL with DGAT Assay Buffer (DAB). The DGAT reaction assay was performed by following the procedure described in U.S. Pat. No. 6,607,893 with some modifications that are described below.
Preparation of DGAT1 substrate mixture: 1 mL stock solution of DGAT1 substrate mixture contains (i) 5.6 μL of ^14C oleoyl CoA (16.8 nCi) and 35 μL 1,2-dioleoyl-sn-glycerol (409.5 μM) or (ii) 5.6 μL of ^14C oleoyl CoA (16.8 nCi) and 105 μL 1,2-dioleoyl-sn-glycerol (1228.5 μM) or (iii) 5.6 μL of ^14C oleoyl CoA (16.8 nCi) and 140 μL 1,2-dioleoyl-sn-glycerol (1638 μM).
1,2-sn-dioleoylglycerol substrate concentration in the 1 mL stock solution of DGAT1 substrate mixture was varied depending on the microsome concentration used in the assay reaction. 1,2-dioleoyl-sn-glycerol stock (19.5 mM) was prepared by dissolving 25 mg of 1,2-dioleoyl-sn-glycerol (Sigma, US) in 2060 μL of acetone. The assay was performed in duplicates in a reaction volume of 100 μL. The reaction volume consisted of: • (i) 27.5 μL of DGAT assay buffer (0.25M Sucrose, 1 mM EDTA (pH 8.0), 150 mM Tris-HCl, pH 7.4, 1.25 mg/mL, fatty acid free BSA), • (ii) 10 μL of compound, of present invention or standard (dissolved in DMSO and diluted to 10× with DAB and screened at 10 μM, 5 μM and 1 μM), • (iii) 60 μL DGAT1 substrate mixture taken from a 1 mL stock (16.8 nCi of ^14C oleoyl CoA and 409.5 μM or 1228.5 μM or 1638 μM of 1,2-dioleyl-sn-glycerol), • (iv) 2.5-10 μL of 1 mg/mL of microsomes (the amount of assay buffer was varied depending upon the concentration of microsome to make up the volume to 100 μL). Procedure:
The reaction was started by the addition of 2.5-10 μL of 1 mg/mL of microsomes (iv) to a mixture of (i), (ii) and (iii), vortexed and incubated at 37° C. for 10 minutes. […]

| Compound | inhibition at 10 µM (At 10 μM) | inhibition at 1 µM | further results |
| --- | --- | --- | --- |
| COC(=O)[C@H](NC(=S)c1cc(-c2ccc(Nc3nc4ccc(F)cc4s3)cc2)no1)C(C)C [Example 39, (R)-2-({3-[4-(6-Fluoro-benzothiazol-2-ylamino)-phenyl]-isoxazole-5-carbothioyl}-amino)-3-methyl-butyric acid methyl ester] | 0 to 50% |  |  |
| CC(C)[C@H](NC(=O)c1cc(-c2ccc(NC(=O)Nc3ccc(F)cc3)c(F)c2)no1)C(=O)O [Example 97] |  |  | % inhibition of hDGAT1 (At 10 μM): +++ (>75% Inhibition ≦100) |
| Cc1cccc(Cl)c1NC(=O)Nc1ccc(-c2cc(C(=O)N[C@H](C(=O)O)C(C)C)on2)cc1 [Example 175, (S)-2-(3-(4-(3-(2-Chloro-6-methylphenyl)ureido)phenyl)isoxazole-5-carboxamido)-3-methylbutanoic acid] |  | 0 to 50% |  |
| COC(=O)[C@@H](NC(=O)c1c(-c2ccc(Nc3nc4ccc(F)cc4s3)cc2)noc1-c1ccccc1)C(C)C [Example 68, (S)-2-({3-[4-(6-Fluoro-benzothiazol-2-ylamino)-phenyl]-5-phenyl-isoxazole-4-carbonyl}-amino)-3-methyl-butyric acid methyl ester] | 0 to 50% |  |  |
| COC(=O)CCCNC(=O)c1cc(-c2ccc(NC(=O)Nc3ccc(C)cc3)cc2)no1 [Example 255, Methyl 4-(3-(4-(3-p-tolylureido)phenyl)isoxazole-5-carboxamido) butanoate] |  |  | % inhibition of hDGAT1 (At 5 μM): + (>0% Inhibition ≦50) |
| COC(=O)[C@H](CC(C)C)NC(=NO)c1cc(-c2ccc(Nc3nc4ccc(F)cc4s3)cc2)no1 [Example 50, (S)-2-({3-[4-(6-Fluoro-benzothiazol-2-ylamino)-phenyl]-N-hydroxy-isoxazole-5-carboximidoyl}-amino)-4-methyl-pentanoic acid methyl ester] | 0 to 50% |  |  |
| COC(=O)C(Cc1ccccc1)NC(=O)c1cc(-c2ccc(NC(=O)Nc3ccc(C)cc3)cc2)no1 (stereo not drawn) [Example 243, Methyl 3-phenyl-2-(3-(4-(3-p-tolylureido)phenyl)isoxazole-5-carboxamido) propanoate] |  |  | % inhibition of hDGAT1 (At 5 μM): + (>0% Inhibition ≦50) |
| CC(C)[C@H](NC(=O)c1cc(-c2ccc(NC(=O)Nc3cc(F)cc(F)c3)cc2)no1)C(=O)O [Example 167, (S)-2-(3-(4-(3-(3,5-difluorophenyl)ureido)phenyl)isoxazole-5-carboxamido)-3-methylbutanoic acid] |  | 75 to 100% |  |
| COC(=O)C(Cc1ccccc1)NC(=O)c1cc(-c2ccc(NC(=O)Nc3ccc(F)cc3F)cc2)no1 (stereo not drawn) [Example 245, Methyl 2-(3-(4-(3-(2,4-difluorophenyl)ureido)phenyl)isoxazole-5-carboxamido)-3-phenylpropanoate] |  |  | inhibition at 5 µM (At 5 μM): 0 to 50% |
| COC(=O)[C@@H]1CCCN1C(=O)c1cc(-c2ccc(NC(=O)Nc3ccccc3F)cc2)no1 [Example 261, (S)-Methyl 1-(3-(4-(3-(2-fluorophenyl)ureido)phenyl)isoxazole-5-carbonyl)pyrrolidine-2-carboxylate] |  | 50 to 75% |  |
| CC(C)[C@H](NC(=O)c1csc(-c2ccc(NC(=O)Nc3ccc(F)c(F)c3)cc2)n1)C(=O)O [Example 371, (S)-2-(2-(4-(3-(3,4-Difluorophenyl)ureido)phenyl)thiazole-4-carboxamido)-3-methylbutanoic acid] |  | 0 to 50% |  |
| Cc1ccc(NC(=O)Nc2ccc(-c3cc(C(=O)N[C@H](C(=O)O)C(C)C)on3)cc2)cc1C [Example 173, (S)-2-(3-(4-(3-(3,4-dimethylphenyl)ureido)phenyl)isoxazole-5-carboxamido)-3-methylbutanoic acid] |  | 75 to 100% |  |
| COC(=O)CNC(=S)c1cc(-c2ccc(Nc3nc4ccc(F)cc4s3)cc2)no1 [Example 60, ({3-[4-(6-fluoro-benzothiazol-2-ylamino)-phenyl]-isoxazole-5-carbothioyl}-amino)-acetic acid methyl ester] | 0 to 50% |  |  |
| COC(=O)[C@@H]1CCCN1C(=O)c1cc(-c2cccc(Nc3nc4ccc(F)cc4s3)c2)no1 [Example 34, (S)-1-{3-[3-(6-Fluoro-benzothiazol-2-ylamino)-phenyl]-isoxazole-5-carbonyl}-pyrrolidine-2-carboxylic acid methyl ester] | 0 to 50% |  |  |
| CC(C)[C@H](NC(=O)c1cc(-c2ccc(NC(=O)Nc3c(Cl)cccc3C(F)(F)F)cc2)no1)C(=O)O [Example 234, (S)-2-(3-(4-(3-(2-Chloro-6-(trifluoromethyl)phenyl)ureido)phenyl)isoxazole-5-carboxamido)-3-methylbutanoic acid] |  | 0 to 50% |  |
| Cc1cc(-c2cc(C(=O)NC(C(=O)O)C(C)C)on2)ccc1NC(=O)Nc1ccc(F)cc1F (stereo not drawn) [Example 103, 2-(3-(4-(3-(2,4-Difluorophenyl)ureido)-3-methylphenyl)isoxazole-5-carboxamido)-3-methylbutanoic acid] | 75 to 100% |  |  |
| CC(C)C(NC(=O)c1cc(-c2ccc(NC(=O)Nc3ccccc3F)cc2)no1)C(=O)O (stereo not drawn) [Example 106, 2-(3-(4-(3-(2-Fluorophenyl)ureido)phenyl)isoxazole-5-carboxamido)-3-methylbutanoic acid] | 75 to 100% |  |  |
| CC(C)[C@H](NC(=O)c1cc(-c2ccc(NC(=O)Nc3ccc4c(c3)CCC4)cc2)no1)C(=O)O [Example 181, (S)-2-(3-(4-(3-(2,3-dihydro-1H-inden-5-yl)ureido)phenyl)isoxazole-5-carboxamido)-3-methylbutanoic acid] |  | 75 to 100% |  |
| CC(C)[C@@H](NC(=O)c1cc(-c2ccc(NC(=O)Nc3ccc(C#N)cc3)cc2)no1)C(=O)O [Example 219, (R)-2-(3-(4-(3-(4-Cyanophenyl)ureido)phenyl)isoxazole-5-carboxamido)-3-methylbutanoic acid] |  | 50 to 75% |  |
| CC(C)C[C@H](NC(=S)c1cc(-c2ccc(Nc3nc4ccc(F)cc4s3)cc2)no1)C(=O)O [Example 49, (S)-2-({3-[4-(6-Fluoro-benzothiazol-2-ylamino)-phenyl]-isoxazole-5-carbothioyl}-amino)-4-methyl-pentanoic acid] | 50 to 75% |  |  |
| CC(C)[C@H](NC(=O)c1cc(-c2ccc(NC(=O)Nc3ccc4c(c3)OCO4)cc2)no1)C(=O)O [Example 177, (S)-2-(3-(4-(3-benzo[d][1,3]dioxol-5-ylureido)phenyl)isoxazole-5-carboxamido)-3-methylbutanoic acid] |  | 75 to 100% |  |
